Laboratory results reported in PubChem BioAssay (NCI).
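In this assay, cells in 96-well plates receive the compound at five concentrations for 48 hours. Endpoints are linearly interpolated between the surrounding concentrations. TGI: total growth inhibition.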

System: SN12K1 renal
Assay: inhibition of tumour cell growth, NCI panel, 48 h

## CC(=O)O[C@H]1C(=O)O[C@@H]2C[C@H]3C(C)=CC(=O)[C@@H](O)[C@]3(C)[C@H]3[C@@]4(O)OC[C@]32[C@@H]1[C@@H](C)[C@H]4O
  TGI: 69.6 nM

## CNNCc1ccc(C(=O)NC(C)C)cc1
  TGI: > 456000 nM
